Experiment in all cases: NCI anticancer screen, dose series, 48 h
Assay [1] deals with HT29 colon.
Assay [2] has as its system SK-OV-3 ovarian.
Assay [3] relates to KM12 colon.
The test system of assay [4] is HS 578T breast.
Assay [5] has as its system SK-MEL-5 melanoma.
The subject of assay [6] is K-562 leukemia.
Assay [7] deals with SF-295 CNS.
Assay [8] concerns SNB-78 CNS.
Assay [9] relates to OVCAR-8 ovarian.
Assay [10] concerns DMS 114 small cell lung.

Where “and” joins values, the source holds several entries; their conditions need not be identical. Equal values may be shown once.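 Grown in 96-well plates, cells were treated for 48 hours with each compound at five concentrations. Insufficient inhibition: endpoint recorded as highest concentration tested. The concentration for 50% growth inhibition is given as GI50. TGI denotes the concentration required for complete inhibition of growth.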

For `O=[N+]([O-])c1ccc(C2CC(c3ccccc3Cl)=Nc3ccccc3S2=O)cc1` (stereo not drawn), the TGI in [1] turned out to be 5.73 µM; in assay [2], 52.9 µM; in assay [3], 9.97 µM; in assay [4], 7.46 µM; in assay [5], 14.2 µM; in assay [6] it was 4.57 µM. Moreover, the TGI in [7] was determined as 15.3 µM; in assay [8], 56 µM; in [9] it was 11.7 µM; in [10], 4.36 µM.
For `Cc1cccc(C(C)C)c1N1C(=O)C(=O)C(c2nc3ccccc3o2)C(=O)C1=O`, the TGI in assay [1], in assay [2], in [3], in assay [5], in [6] and in assay [7] was more than 100 µM each time. The TGI in assay [8] was more than 100 µM; in assay [9] it was more than 100 µM; in assay [10] it was 75.8 µM.
With `N#CC1CCCCOCCOCCOCCOCCOCCCCCC1=O` (stereo not drawn), the TGI in assay [1], in assay [2], in [3], in assay [5], in [6] and in assay [7] was more than 100 µM throughout. Also, the TGI in assay [8], in [9] and in assay [10] was more than 100 µM each time.
Consider `C#CC[N+](C)(CC#C)CC#C`, for which the TGI in [1], in [2], in assay [3], in assay [5], in assay [6] and in [7] was more than 100 µM in each case. For the same compound, the TGI in assay [8], in assay [9] and in [10] was more than 100 µM throughout.
On to `COc1cc(NS(C)(=O)=O)ccc1Nc1c2ccccc2nc2ccccc12`, for which the GI50 is 1.37 µM and 0.888 µM and 0.991 µM in assay [1]; 0.557 µM and 0.239 µM and 0.288 µM in assay [2]; 1.71 µM and 1.68 µM in [3]; 0.618 µM and 0.282 µM in assay [5]; 1.94 µM and 1.87 µM and 0.624 µM in assay [6]; 0.405 µM and 0.166 µM and 0.136 µM in assay [7]. Also, the GI50 in assay [8] is 5.79 µM and 10.6 µM; in [9], 1.33 µM and 0.904 µM and 1.03 µM; in assay [10], 0.114 µM and 0.0981 µM. Further, the TGI in [3] was 11.4 µM [middle of 8 runs]; in assay [8], 17.7 µM and 36.5 µM and 14.4 µM; in assay [10], 6.54 µM and 1.52 µM and 4.56 µM.
For `O=[N+]([O-])c1ccc(Cl)c(C2CC(c3cccc4ccccc34)=Nc3ccccc3S2)c1` (stereo not drawn), the TGI in [1] is more than 59.7 µM; in assay [2], more than 100 µM; in [3], more than 100 µM; in assay [5], more than 31.6 µM; in assay [6], more than 69.6 µM; in [7], more than 94.1 µM. Moreover, the figures for the TGI in [8], in [9] and in assay [10] were more than 66.7 µM, 30.8 µM and 84.5 µM, respectively.
In the case of `Cc1nnc2c3nnc(C)n3c3ccccc3n12`, the TGI in [1], in assay [2], in assay [3], in assay [5], in [6] and in assay [7] was more than 100 µM throughout. The TGI in [8], in assay [9] and in assay [10] was more than 100 µM in each case.
As for `NC(=O)c1c([N+](=O)[O-])cc(C(F)(F)F)cc1[N+](=O)[O-]`, the TGI in assay [1], in [2], in assay [3], in [5], in assay [6] and in [7] was more than 100 µM in each case. For the same compound, the TGI in assay [8] was more than 100 µM; in [9], more than 100 µM; in [10], 73.3 µM.
As for `O=C(NCCO)c1ccc([N+](=O)[O-])cc1`, the TGI in assay [1], in [2], in assay [3], in assay [5], in [6] and in [7] was more than 100 µM throughout. Further, the TGI in [8], in [9] and in assay [10] was more than 100 µM throughout.
For the compound `C[N+](C)(C)CC1CCC/C1=N/O` (stereo not drawn), the TGI in assay [1] was more than 100 µM; in [2], more than 100 µM; in assay [3] it was more than 100 µM; in assay [5], more than 100 µM; in [6] it was 44.6 µM; in [7] it was more than 100 µM. Besides, the results for the TGI in [8], in assay [9] and in assay [10] were more than 100 µM, 4.34 µM and 39 µM, respectively.
As for `Cn1c(=O)c(NC(=O)C(Cl)(Cl)Cl)nc2ccccc21`, the TGI in [1], in assay [2], in assay [3], in assay [5], in [6] and in [7] was more than 100 µM throughout. Moreover, the TGI in assay [8], in assay [9] and in assay [10] was more than 100 µM throughout.
As for `O=C(CCC(=O)Nc1ccc(Cl)c(Cl)c1)CC(=O)c1ccc(F)cc1`, the TGI in assay [1], in [2], in assay [3], in [5], in [6] and in assay [7] was more than 100 µM in each case. In addition, the TGI in [8], in assay [9] and in [10] was more than 100 µM throughout.
With `COC(=O)CCC1CCc2c(OC)ccc(OC)c2C1=O` (stereo not drawn), the TGI in assay [1], in assay [2], in [3], in assay [5], in assay [6] and in assay [7] was more than 100 µM throughout. The TGI in assay [8], in assay [9] and in assay [10] was more than 100 µM in each case.
Take `Cc1ccc(NC(=O)C2C(=O)N(c3ccc(C)c(C)c3)C(=O)/C2=N\NC(N)=O)cc1C` (stereo not drawn): the TGI in assay [1], in [2], in [3], in [5], in assay [6] and in [7] was more than 100 µM in each case. Besides, the TGI in [8], in assay [9] and in assay [10] was more than 100 µM each time.
With `O=S(=O)(O)c1ccc(N=Nc2nc(C(F)(F)F)c(C(F)(F)F)[nH]2)cc1`, the TGI in [1], in assay [2], in assay [3], in [5], in assay [6] and in [7] was more than 100 µM each time. The TGI is more than 100 µM in assay [8], more than 100 µM in [9] and 30.5 µM in assay [10].
As for `CCCCCCCCCCCCCCCCNCCCN(C)CCCN`, the TGI in assay [1] came to 35.8 µM; in assay [2], 34.6 µM; in [3], 33 µM; in assay [5], 31.4 µM; in [6], 49.5 µM; in [7] it was 33.4 µM. The results for the TGI in assay [8], in [9] and in [10] were 34.4 µM, 38.5 µM and 35.1 µM, respectively.

For the origin of these results see PubChem BioAssay (NCI).
